Data as given in publication PMC7561186, “Rational design of balanced dual-targeting antibiotics with limited resistance” (PLoS Biology, 2020).
Where “and” joins values, the source holds several entries; their conditions need not be identical. Equal entries are not always repeated. Where two headings read alike, the source gives them in different places.

Key:
[1] = biological target: T1, S. aureus topoisomerase IV (Staphylococcus aureus, UniProt P0C1S7); assay: S. aureus topoisomerase IV gel-based assay; type: biochemical; conditions: quadruplicates
T1 construct: purchased Inspiralis Ltd., Norwich, UK

[2] = test system: Staphylococcus epidermidis; assay: MIC, broth microdilution (CLSI); type: cell-based; conditions: Staphylococcus epidermidis ATCC 51625, MRSE
Experimental: (§1) MICs were determined using a standard serial broth microdilution technique according to the CLSI guidelines. Briefly, bacterial strains were inoculated onto MHBII agar plates and were grown overnight at 37 °C. Next, 3 individual colonies from each strain were inoculated into 1 mL MHBII medium and propagated at 37 °C, 250 rpm overnight. In the cases of Enterococcus and Streptococcus sp., cells were plated to BHI agar plates, and BHI broth was used to determine MICs. […] Following dilutions, each well was seeded with 5×10^4 bacterial cells. All measurements were performed in 3 parallel replicates and to avoid possible edge effects in microwell plates, side rows (A and H) were filled with sterile medium. Following inoculations, plates were covered with lids and wrapped in polyethylene plastic bags to minimize evaporation but allow for O2 transfer. Plates were incubated at 37 °C under continuous shaking at 150 rpm for 18 hours. After incubation, OD600 of each well was measured using a BioTek Synergy 2 microplate reader.

[3] = test system: S. aureus ATCC 700699 VISA; assay: Time-dependent killing; type: cell-based; conditions: for Time-kill bacterial count: 10xMIC; for cell killing (bactericidal) activity: 10× MIC, S. aureus ATCC 700699 (VISA), in words; for Colony numbers: time-kill raw counts, Samples 1-3
Experimental: Time-dependent killing experiments were performed as previously. S. aureus ATCC 700699 VISA cells were inoculated to MHBII agar plates and grown overnight at 37 °C. Next, 3 independent stationer-phase starter cultures were grown at 37 °C, 250 rpm overnight, in 3 × 1 mL MHBII broth. Next, 100-fold diluted cultures were prepared from each in 20 mL fresh MHBII medium and grown at 37 °C, 250 rpm until early exponential phase (OD600 = 0.3–0.4; i.e., 5 × 10^5 cells/mL). […] Cells were treated with antibiotics in Erlenmeyer flasks at 37 °C, 150 rpm for 48 hours. […] Next, 50 μL from each dilution were plated on MHBII agar plates, and plates were incubated overnight at 37 °C to calculate CFU per mL.

[4] = test system: S. aureus VISA ATCC 700699 GyrB / ParE mutants; assay: MIC of spontaneous resistant mutants (single-step and second-step); type: cell-based; conditions: for MIC: Staphylococcus aureus
Experimental: as §1

[5] = test system: human hERG potassium ion channel; conditions: for inhibitory effect on human hERG ion channels: 150 μM, in words; for Significant (hERG inhibition) / Normalized inhibition (%): 150 µM, hERG; for Normalized inhibition (%): n = 8
Experimental: Inhibition of the human hERG cardiac K+ ion channel was determined by Eurofins Panlabs (St. Charles, MO, USA) by using QPatch automated whole-cell patch-clamp electrophysiology, as described previously. […] During measurements, after whole-cell patch configuration was achieved, the cells were held at −80 mV. Next, a 500-millisecond pulse to −40 mV was delivered to measure the leaking current, which was then subtracted from the tail current’s readout. Then the cell was depolarized to +40 mV for 500 milliseconds and then to −80 mV over a 100-millisecond ramp to elicit the hERG tail current. This workflow was repeated once in every 8 seconds to monitor the current amplitude. The parameters measured during each test were the maximum tail current evoked on stepping to 40 mV and ramping back to −80 mV from the test pulse. All data were filtered for seal quality, seal drop, and current amplitude. The peak current amplitude was calculated before and after compound addition, and the amount of inhibition was assessed by dividing the test compound’s current amplitude by the control’s current amplitude. During our tests, the control was the mean hERG current amplitude collected 15 seconds at the end of each measurement, and the test compound was the mean hERG current amplitude collected in the presence of test compound at the given concentration.

[6] = Pharmacokinetics measurement in skin tissue; type: in vivo, mice; conditions: for Drug concentration in mouse skin tissue (individual mice) / Drug concentration in mouse skin tissue, Mean: 73 h, 3 days twice-a-day topical 20 μL ointment containing 2% drug; for Drug concentration in mouse skin tissue, Mean: n = 3; for skin concentration as multiple of the MIC in wild-type S. aureus VISA: topical treatment, mouse skin
Experimental: Pharmacokinetics measurement of ULD1 and ULD2 in skin tissue was conducted parallelly with the mice dermal infection study. In all cases, skin tissue samples were collected at the termination and homogenized following the same method as homogenate preparation for bacterial enumeration. Before measurement, protein precipitation was performed by treating the samples with acetonitrile. Analytics were the performed by liquid chromatography coupled mass spectrometry (LC/MS/MS) on an AB SCIEX QTRAP mass spectrometer in electrospray, positive ions ionization mode, and with Multiple Reaction Monitoring scan mode. Samples were analyzed on a Phenomenex Luna 5u Phenyl-Hexyl 50 × 2.0 mm HPLC column in a mobile phase of A: acetonitrile/formic acid = 100/0.2 (v/v), and mobile phase of B: water / formic acid = 100/0.2 (v/v). The column’s temperature was set to 30 °C, the injection volumes were 10 μL, and measurement time was 5 minutes in all cases. Oxybutynin (0.01 ng/μL in acetonitrile) was used as an internal standard for the measurement. Finally, the concentration of the drug in tissue samples was calculated from the peak area ratio.

[7] = test system: HepG2 cells; conditions: LDH assay
[8] = second-step mutant, selection ULD1 at 16× MIC, GyrB I175T, ParE A120D
[9] = second-step mutant, selection ULD1 at 16× MIC, GyrB I175T, ParE F95Y
[10] = second-step mutant, selection ULD1 at 16× MIC, GyrB I175T, ParE T166A
[11] = second-step mutant, selection ULD1 at 16× MIC, GyrB I175T, ParE T166I
[12] = second-step mutant, selection ULD1 at 16× MIC, GyrB R144I, ParE A120D
[13] = second-step mutant, selection ULD1 at 16× MIC, GyrB R144I, ParE F95Y
[14] = second-step mutant, selection ULD1 at 16× MIC, GyrB R144I, ParE R136G
[15] = second-step mutant, selection ULD2 at 8× MIC, GyrB I175T, ParE A120D
[16] = second-step mutant, selection ULD2 at 12× MIC, GyrB R144I, ParE A120D
[17] = second-step mutant, selection ULD2 at 12× MIC, GyrB R144I, ParE F95Y
[18] = second-step mutant, selection ULD2 at 12× MIC, GyrB R144I, ParE R136G

Cc1[nH]c(C(=O)Nc2nc3ccc(C(=O)O)cc3s2)c(Cl)c1Cl [ULD1]
IC50 [1]: 9.3 ± 2.2 nM | MIC [2]: 0.0625 µg/mL | Time-kill bacterial count ([3]; time 0 hour): 2.80E+05 | Time-kill bacterial count ([3]; time 3 hour): 9.80E+04 | Time-kill bacterial count ([3]; time 6 hour): 6.30E+04 | Time-kill bacterial count ([3]; time 12 hour): 4.90E+03 | Time-kill bacterial count ([3]; time 18 hour): 1.70E+03 | Time-kill bacterial count ([3]; time 24 hour): 8.50E+02 | Time-kill bacterial count ([3]; time 48 hour): 1.60E+02 | cell killing (bactericidal) activity [3]: exceed that of fusidic acid | Colony numbers ([3]; time 0 h, Dilution 100): 145 and 132 and 137 | Colony numbers ([3]; time 3 h, Dilution 100): 54 and 53 and 40 | Colony numbers ([3]; time 6 h, Dilution 100): 38 and 20 and 36 | Colony numbers ([3]; time 12 h, Dilution 10): 20 and 23 and 31 | Colony numbers ([3]; time 18 h, Dilution 1): 83 and 63 and 113 | Colony numbers ([3]; time 24 h, Dilution 0.5): 65 and 80 and 110 | MIC ([4]; VISA GyrB I175T): 0.198 µg/mL | MIC ([4]; VISA GyrB R144G): 0.132 µg/mL | MIC ([4]; VISA GyrB R144I): 0.198 µg/mL | MIC ([4]; VISA wt, read-out: MIC): 0.04 µg/mL | MIC [4, 8]: 4 µg/mL | MIC [4, 9]: 4 µg/mL | MIC ([4]; second-step mutant, selection ULD1 at 16× MIC, GyrB I175T, ParE R136G): 4 µg/mL | MIC [4, 10]: 2 µg/mL | MIC [4, 11]: 2 µg/mL | MIC [4, 12]: 2 µg/mL | MIC [4, 13]: 2 µg/mL | MIC [4, 14]: 2 µg/mL | MIC [4, 15]: 4 µg/mL | MIC [4, 16]: 2 µg/mL | MIC [4, 17]: 2 µg/mL | MIC [4, 18]: 4 µg/mL | inhibitory effect on human hERG ion channels [5]: No statistically significant inhibitory effect | Significant (hERG inhibition) [5]: No (Only results showing an inhibition higher than 50% are considered to represent significant effects of the tested compounds) | Normalized inhibition (%) [5]: 5.5% | Drug concentration in mouse skin tissue (individual mice) [6]: 8853 ng/mL and 14630 ng/mL and 6624 ng/mL | Drug concentration in mouse skin tissue, Mean [6]: 10036 ng/mL | skin concentration as multiple of the MIC in wild-type S. aureus VISA [6]: up to 300 times the MIC | Max. % inhibition at 100 µM [7]: Max. % inhibition at 100 µM: 1.53%

Cc1[nH]c(C(=O)Nc2nc3c(OCc4ccccc4)cc(C(=O)O)cc3s2)c(Cl)c1Cl [ULD2]
IC50 [1]: 2 ± 0.3 nM | Time-kill bacterial count ([3]; time 0 hour): 2.80E+05 | Time-kill bacterial count ([3]; time 3 hour): 9.90E+04 | Time-kill bacterial count ([3]; time 6 hour): 5.60E+04 | Time-kill bacterial count ([3]; time 12 hour): 7.00E+03 | Time-kill bacterial count ([3]; time 18 hour): 4.90E+02 | Time-kill bacterial count ([3]; time 24 hour): 1.90E+02 | Time-kill bacterial count ([3]; time 48 hour): 1.70E+01 | cell killing (bactericidal) activity [3]: exceed that of fusidic acid | Colony numbers ([3]; time 0 h, Dilution 100): 145 and 132 and 137 | Colony numbers ([3]; time 3 h, Dilution 100): 56 and 39 and 53 | Colony numbers ([3]; time 6 h, Dilution 100): 28 and 24 and 32 | Colony numbers ([3]; time 18 h, Dilution 1): 31 and 22 and 20 | Colony numbers ([3]; time 48 h, Dilution 0.5): 1 and 2 | MIC ([4]; VISA GyrB I175T): 0.088 µg/mL | MIC ([4]; VISA GyrB R144G): 0.058 µg/mL | MIC ([4]; VISA GyrB R144I): 0.058 µg/mL | MIC ([4]; VISA wt, read-out: MIC): 0.02 µg/mL | MIC [4, 8]: 0.25 µg/mL | MIC [4, 9]: 0.25 µg/mL | MIC [4, 10]: 0.125 µg/mL | MIC [4, 11]: 0.25 µg/mL | MIC [4, 12]: 0.25 µg/mL | MIC [4, 13]: 0.125 µg/mL | MIC [4, 14]: 0.25 µg/mL | MIC ([4]; second-step mutant, selection ULD1 at 16× MIC, GyrB R144I, ParE R136L): 0.125 µg/mL | MIC [4, 15]: 1 µg/mL | MIC [4, 16]: 0.125 µg/mL | MIC [4, 17]: 0.25 µg/mL | MIC [4, 18]: 0.25 µg/mL | concentration inhibiting all isolated double mutants and laboratory evolved strains ([4]; {}): ≤ 1 µg/mL | concentration inhibiting all isolated second-step resistant mutants ([4]; {}): ≤ 1 µg/mL | inhibitory effect on human hERG ion channels [5]: No statistically significant inhibitory effect | Significant (hERG inhibition) [5]: No (Only results showing an inhibition higher than 50% are considered to represent significant effects of the tested compounds) | Normalized inhibition (%) [5]: 27% | Drug concentration in mouse skin tissue (individual mice) [6]: 4224 ng/mL and 6654 ng/mL and 10244 ng/mL | Drug concentration in mouse skin tissue, Mean [6]: 7041 ng/mL | skin concentration as multiple of the MIC in wild-type S. aureus VISA [6]: up to 300 times the MIC | Max. % inhibition at 100 µM [7]: Max. % inhibition at 100 µM: 1.96%
